Measured values reported in the OligoGym collection.
Where “and” joins values, the source holds several entries; their conditions need not be identical. Equal entries are not always repeated. After the bases stand the sugars from the 5' end (letter, count) and the backbone: PS all phosphorothioate, else s phosphorothioate and o phosphodiester by linkage. Methylation of C is not given here. e = 2'-O-(2-methoxyethyl) (MOE); k = constrained ethyl (cEt); d = 2'-deoxy (DNA)

Target: IRF4
Conditions: ASO

Sequence	target mRNA inhibition (SK-MEL-28, 4 µM)	also measured
ACCCACATAACTCAGG (sugars k3 d10 k3, PS)	31%	–
GCATAGGCATCCTTCC (sugars k3 d10 k3, PS)	–	target mRNA inhibition (MM.1R, 1 µM): 8%
TGCTGATGTGTTCTGG (sugars k3 d10 k3, PS)	67% and 58%	–
TACACCTACACAGGCT (sugars k3 d10 k3, PS)	19%	–
CCTTTAGTGTCGCCAT (sugars k3 d10 k3, PS)	58%	–
AGATAACATGAGAGTG (sugars k3 d10 k3, PS)	41%	–
GCATGGATCCTGAGAG (sugars k3 d10 k3, PS)	–	target mRNA inhibition (MM.1R, 1 µM): 11%
CGCAATTCTCCTCAAC (sugars k3 d10 k3, PS)	38%	–
GCGGAGGTTCCTTGAG (sugars k3 d10 k3, PS)	44%	–
AGGCACATCAATGTTT (sugars kkdddddddddkdkdk, PS)	–	target mRNA inhibition (MM.1R, 1 µM): 4% and 19%
TCTAAGGCAAGCTGAA (sugars k3 d10 k3, PS)	21%	–
AGTACAAACTAAATTC (sugars k3 d10 k3, PS)	24%	–
CACAAGTGGCCTTCCT (sugars k3 d10 k3, PS)	45%	–
AGTGACCACGAGGCCC (sugars k3 d10 k3, PS)	15%	–
CTCTAGACAGAGGCCC (sugars k3 d10 k3, PS)	20%	–
AGTTGTAAATGAGTCG (sugars e1 k2 d9 k2 e2, PS)	–	target mRNA inhibition (MM.1R, 1 µM): 49%
GTGCTTGCCAAGCCTA (sugars k3 d10 k3, PS)	–	target mRNA inhibition (MM.1R, 1 µM): 27% and 36%
TGCCAGTTCCTTGTGA (sugars k3 d10 k3, PS)	–	target mRNA inhibition (MM.1R, 1 µM): -2%
ACGTGTGCTTGCCAAG (sugars kkdddddddddkekek, PS)	–	target mRNA inhibition (MM.1R, 1 µM): 49% and 44%
TCACTAAGCTTGATAA (sugars k3 d10 k3, PS)	37%	–
GCACAGTCTTTTCGCA (sugars k3 d10 k3, PS)	20%	–
CAAAACGCAGAGCCAG (sugars k3 d10 k3, PS)	58%	–
GCAAAGCAAGTGTCTA (sugars k3 d10 k3, PS)	43%	–
CGCGGACGCACGGAGA (sugars k3 d10 k3, PS)	19%	–
CGCAATCTTCTGCTGA (sugars k3 d10 k3, PS)	64%	–
ACAGTGACTTGCATCC (sugars kkddddddddddkeke, PS)	–	target mRNA inhibition (MM.1R, 1 µM): 30%

Sequence	target mRNA inhibition (SK-MEL-28, 4 µM)	also measured
GCCAAGGACACCACCT (sugars k3 d10 k3, PS)	-2%	–
GTAGGACAGACAAAAA (sugars k3 d10 k3, PS)	23%	–
AGAAGCACTGGCATCG (sugars k3 d10 k3, PS)	37%	–
ACCTACAAAATGCCTC (sugars k3 d10 k3, PS)	42%	–
GGTTGGCTGGTCTTTG (sugars kkdddddddddkekek, PS)	–	target mRNA inhibition (MM.1R, 0.0625 µM): 34%; target mRNA inhibition (MM.1R, 0.25 µM): 44%; target mRNA inhibition (MM.1R, 1 µM): 67% and 63%; target mRNA inhibition (MM.1R, 4 µM): 82%
GCATTTTATCATCCGA (sugars k3 d10 k3, PS)	63%	–
GACTTAGAGGACAGTG (sugars k3 d10 k3, PS)	48%	–
CTAAATCACCCTGGTC (sugars k3 d10 k3, PS)	47%	–
CAACAGCACTGTCCAC (sugars k3 d10 k3, PS)	43%	–
TACAAGCAGTCATCAC (sugars k3 d10 k3, PS)	29%	–
CCACGCGCGGAGGACC (sugars k3 d10 k3, PS)	19%	–
CCTCAGTTTGTGAAGC (sugars kkkdddddddddkeke, PS)	–	target mRNA inhibition (MM.1R, 1 µM): 8%
CAGCACCGTGGTGCGA (sugars k3 d10 k3, PS)	–	target mRNA inhibition (MM.1R, 1 µM): -27%
GCCCCGAATAGGACCC (sugars k3 d10 k3, PS)	21%	–
TTATTAAGTCAATCAC (sugars k3 d10 k3, PS)	-1%	–
TCGAGATCAGTCTCAA (sugars k3 d10 k3, PS)	58% and 82%	–
AGCCGCCGGCACAGGC (sugars k3 d10 k3, PS)	1%	–
CAGCAACTCCCTTGGG (sugars k3 d10 k3, PS)	23%	–
AGAGCCCCTACCTTTT (sugars k3 d10 k3, PS)	–	target mRNA inhibition (MM.1R, 1 µM): -7%
ACTGAGAGTGCGAGGT (sugars k3 d10 k3, PS)	-20%	–
TCTTTATGCGAAGAAT (sugars k3 d10 k3, PS)	42%	–
CATCTAATCCACAATC (sugars k3 d10 k3, PS)	–	target mRNA inhibition (MM.1R, 1 µM): -19%
CACTAAGCTTGATAAA (sugars k3 d10 k3, PS)	-11%	–
TTACTTCCCTGAGAAA (sugars k3 d10 k3, PS)	20%	–
GCACAGTCTCTTTTTA (sugars k3 d10 k3, PS)	36%	–
TCTTATGCATGTTCCT (sugars k3 d10 k3, PS)	62%	–

Sequence	target mRNA inhibition (SK-MEL-28, 4 µM)	also measured
GCACATCAATGTTTTA (sugars kkdddddddddkekek, PS)	–	target mRNA inhibition (MM.1R, 1 µM): 18% and 15%
TGGGATTATATACTGG (sugars kddddddddddkekek, PS)	–	target mRNA inhibition (MM.1R, 1 µM): 43%
GCTTGAGGTTTTCCTA (sugars k3 d10 k3, PS)	77%	–
AGTGATGTCAGGTTTT (sugars k3 d9 k3 e1, PS)	–	target mRNA inhibition (MM.1R, 0.074 µM): 13%; target mRNA inhibition (MM.1R, 0.222 µM): 40%; target mRNA inhibition (MM.1R, 0.666 µM): 64%; target mRNA inhibition (MM.1R, 1 µM): 65%; target mRNA inhibition (MM.1R, 2 µM): 86%
CCCCATTGCCTGTTAA (sugars k3 d10 k3, PS)	20%	–
AAAAGGTTCCTGTCAC (sugars k3 d10 k3, PS)	–	target mRNA inhibition (MM.1R, 1 µM): -5%
TAGTATGAGAAACGGC (sugars kddddddddddkekek, PS)	–	target mRNA inhibition (MM.1R, 1 µM): 24%
GGACATTGGTACGGGA (sugars k3 d10 k3, PS)	50%	–
CAATTGAAATGGAGCA (sugars k3 d10 k3, PS)	26%	–
TTGTGAAGCATCCTTT (sugars k3 d10 k3, PS)	63%	–
GCTCACCGCGCTCATG (sugars k3 d10 k3, PS)	48%	–
TAAAAGAGGTGCTAGG (sugars k3 d10 k3, PS)	27%	–
CAAGTGTCTAAAGTCC (sugars k2 d9 e3 k2, PS)	–	target mRNA inhibition (MM.1R, 1 µM): 22% and 31%
GCTCATGTTTTTTGAC (sugars k3 d10 k3, PS)	56%	–
ACAGGAGCCGCTACAG (sugars k3 d10 k3, PS)	31%	–
TCTTTATAGTAGGTAA (sugars k3 d10 k3, PS)	–	target mRNA inhibition (MM.1R, 1 µM): 14%
AGCGAGTCAGACAGTG (sugars k3 d10 k3, PS)	16%	–
GGGTAGAGCAGCTCCC (sugars k3 d10 k3, PS)	–	target mRNA inhibition (MM.1R, 1 µM): -16%
CGGCAGACGGGAGCCC (sugars k3 d10 k3, PS)	12%	–
AAGAATGGCGCATAGG (sugars k3 d10 k3, PS)	81%	target mRNA inhibition (MM.1R, 0.0625 µM): -1% and 19%; target mRNA inhibition (MM.1R, 0.25 µM): 12% and 27%; target mRNA inhibition (MM.1R, 1 µM): 28% and 42%; target mRNA inhibition (MM.1R, 4 µM): 55% and 66%
CCTCCATTCTAACAGA (sugars k4 d8 k4, PS)	-22%	–
CAGTTCTAAGCATTGC (sugars k3 d10 k3, PS)	33%	–
CAAGATCGAGCGGTGA (sugars k3 d10 k3, PS)	38%	–
GTTAAGTCCCATCTGT (sugars k3 d10 k3, PS)	40%	–
